# Test results reported in article PMC3154276, “The Effect of the Potential PhoQ Histidine Kinase Inhibitors on Shigella flexneri Virulence” (PLoS ONE, 2011).
# Key:
# S. flexneri 2a 301 = test: Gentamicin protection assay, HeLa cell invasion by Sf301; type: cell-based; conditions: bacteria treated 8 h, Figure S4
# Protocol: Supplementary file pone.0023100.s004.tif: Figure S4 The effects of potential PhoQ inhibitors on cell invasion of Shigella Sf 301. […] The bacteria were treated with each of the four potential PhoQ inhibitors grown for 8 h. Then the bacteria were inoculated with HeLa cells for 60 minutes prior to the addition of gentamicin to kill extracellular bacteria. After the incubation, the HeLa cells in each well were lysed in 1 ml of PBS containing 0.1% Triton X-100. The lysates were diluted and plated onto LB agar plates in triplicate. Colonies grown on LB plates were counted. The results of the assays were expressed as the number of bacteria recovered from gentamicin-treated cells divided by the number of inoculated bacteria added to the cell. Values are means ± standard deviations from 6 independent wells. *p<0.01 vs. Sf301. […] (TIF) Click here for additional data file.
# S. flexneri Sf9380 = test: Mouse Sereny test (keratoconjunctivitis); type: in vivo, BALB/c mice; conditions: for degree of keratoconjunctival inflammation: Sf9380 pre-treated at the concentration (I 1 12.5, I 2 25, I 3 and I 4 100 µmol/L); for eye finding at 24 hours after infection / time by which keratoconjunctivitis was resolved: 1×10^8 CFUs per eye; for keratoconjunctival inflammation (words, abstract): mice inoculated with pre-treated S. flexneri 9380
# Text: A Mouse Sereny test was used to investigate the inhibitory effect of the four potential PhoQ inhibitors on the virulence of S. flexneri Sf9380. The mice were infected with 1×10^8 CFUs per eye.
# A Mouse Sereny test was used to evaluate the virulence of S. flexneri Sf9380 [48]. A single red colony of Sf9380 on Congo Red agar (Tryptic soy broth provided by Oxfoid Co. with 1.5% agar and 0.01% Congo red), was inoculated into LB and grown with or without potential PhoQ inhibitors (final concentration 100,50,25,12.5 or 6.25 µmol/L) at 37°C for 8 hours with constant shaking. The female BALB/c mice (about 18 g) were infected with 1×10^8 CFUs per eye. The eye of the mouse was inoculated with the bacterium with or without potential PhoQ inhibitor treatment (n = 6 mice in each group). […] In the experiment, mouse eyes inoculated with untreated Sf9380 (treated without DMSO) served as the positive control for keratoconjunctivitis, and mouse eyes inoculated with E. coli ATCC 25922 (treated without DMSO) served as the negative control. Because DMSO is the solvent of the potential PhoQ inhibitor, Sf9380 was treated with the same amount of DMSO (0.1%) as the other groups. The invasiveness of the bacteria was scored: no disease or mild irritation as “−”, + as mild conjunctivitis or late development and/or rapid clearing of symptoms, ++ as keratoconjunctivitis without purulence, and +++ as fully developed keratoconjunctivitis with purulence.
# [1] = test system: Salmonella enterica Typhimurium SL1344; test: Salmonella cell invasion assay (gentamicin protection, HeLa cells); type: cell-based; conditions: for cell invasion rate of Salmonella enterica Typhimurium SL1344: HeLa cells, untreated Salmonella 6×10^−2; for effect on cell invasion of Salmonella SL1344 (words, discussion): Figure 7, concentration not restated
# Protocol: The effects of potential PhoQ inhibitors on cell invasion of Salmonella were determined by gentamicin protection assay.
# Figure 7 The effects of potential PhoQ inhibitors on cell invasion of Salmonella. […] The bacteria pre-treated with potential PhoQ inhibitor were added to HeLa cells at a multiplicity of infection of 100. Then gentamicin was added to kill extracellular bacteria and cell lysates were plated onto LB plates, and the colonies were counted. The results of the assays were expressed as the number of bacteria recovered from gentamicin-treated cells divided by the number of inoculated bacteria added to the cell. Salmonella enterica typhimurium SL1344 served as the positive control for the cell invasion assay; E. coli ATCC 25922 (treated without DMSO), an avirulent strain, served as the negative control for the cell invasion assay; bacteria treated with 0.1% DMSO also served as a control for the cell invasion assay. Values are means ± standard deviations from 6 independent wells. *p<0.01 vs. SL1344.
# The gentamicin protection assay was used as a cellular model to evaluate the inhibitory effect of the four potential PhoQ inhibitors. Salmonella enterica typhimurium SL1344 was treated with each of the four potential PhoQ inhibitors (final concentrations: potential PhoQ inhibitor 1 was 12.5 µmol/L, 2 was 25 µmol/L, 3 was 100 µmol/L and 4 was 100 µmol/L) and grown for 8 hours. The bacteria pre-treated with potential PhoQ inhibitor without washing, were added to HeLa cells at a multiplicity of infection of 100, at the same time the bacteria were diluted and plated onto LB agar plates. The CFUs were counted as initial bacterial number before added into HeLa cells. Next, the bacteria were inoculated to HeLa cells and incubated with for 60 minutes prior to the addition of gentamicin to kill extracellular bacteria. After the incubation, the HeLa cells in each well were lysed in 1 ml of PBS containing 0.1% Triton X-100 for 10 minutes at room temperature. The lysates were diluted and plated onto LB agar plates in triplicate. Colonies grown on LB plates were counted. The results of the assays were expressed as the number of bacteria recovered from gentamicin-treated cells divided by the number of inoculated bacteria added to the cell. After lysates of HeLa cells were plated, the number of CFU that formed on LB agar were counted. The cells were inoculated with untreated SL1344 (treated without DMSO) as a positive control and E. coli ATCC 25922, an avirulent strain treated without DMSO, as a negative control. SL1344 was treated with the same amount of 0.1% DMSO as the other groups to control for any DMSO-specific effects. The cell invasion assay was performed in triplicate for each potential PhoQ inhibitor, and the assay was repeated twice.
# [2] = Sf9380 pre-treated with 25 µmol/L
# [3] = Sf9380 pre-treated with 12.5 µmol/L
Compound,effect on HeLa cell invasion ability of Sf301 (S. flexneri 2a 301),"degree of keratoconjunctival inflammation (S. flexneri Sf9380; 24 h, mouse 1)","degree of keratoconjunctival inflammation (S. flexneri Sf9380; 24 h, mouse 2)","degree of keratoconjunctival inflammation (S. flexneri Sf9380; 24 h, mouse 3)","degree of keratoconjunctival inflammation (S. flexneri Sf9380; 24 h, mouse 4)","degree of keratoconjunctival inflammation (S. flexneri Sf9380; 24 h, mouse 5)","degree of keratoconjunctival inflammation (S. flexneri Sf9380; 24 h, mouse 6)","degree of keratoconjunctival inflammation (S. flexneri Sf9380; 48 h, mouse 1)","degree of keratoconjunctival inflammation (S. flexneri Sf9380; 48 h, mouse 2)","degree of keratoconjunctival inflammation (S. flexneri Sf9380; 48 h, mouse 3)","degree of keratoconjunctival inflammation (S. flexneri Sf9380; 48 h, mouse 4)","degree of keratoconjunctival inflammation (S. flexneri Sf9380; 48 h, mouse 5)","degree of keratoconjunctival inflammation (S. flexneri Sf9380; 48 h, mouse 6)","degree of keratoconjunctival inflammation (S. flexneri Sf9380; 72 h, mouse 1)","degree of keratoconjunctival inflammation (S. flexneri Sf9380; 72 h, mouse 2)","degree of keratoconjunctival inflammation (S. flexneri Sf9380; 72 h, mouse 3)","degree of keratoconjunctival inflammation (S. flexneri Sf9380; 72 h, mouse 4)","degree of keratoconjunctival inflammation (S. flexneri Sf9380; 72 h, mouse 5)","degree of keratoconjunctival inflammation (S. flexneri Sf9380; 72 h, mouse 6)","degree of keratoconjunctival inflammation (S. flexneri Sf9380; 96 h, mouse 1)",also measured
CCOc1ccccc1-c1cc(C(=O)N/N=C/c2ccc(OCc3ccccc3)c(OC)c2)c2ccccc2n1 [Compound 2],can inhibit,+,+,+,+,+,+,−,+,−,−,−,−,−,−,−,−,−,−,−,"degree of keratoconjunctival inflammation (S. flexneri Sf9380; 96 h, mouse 2): −; degree of keratoconjunctival inflammation (S. flexneri Sf9380; 96 h, mouse 3): −; degree of keratoconjunctival inflammation (S. flexneri Sf9380; 96 h, mouse 4): −; degree of keratoconjunctival inflammation (S. flexneri Sf9380; 96 h, mouse 5): −; degree of keratoconjunctival inflammation (S. flexneri Sf9380; 96 h, mouse 6): −; eye finding at 24 hours after infection (S. flexneri Sf9380; [2]): slight conjunctival inflammation; time by which keratoconjunctivitis was resolved (S. flexneri Sf9380; [2]): ≤ 48 h; keratoconjunctival inflammation (words, abstract) (S. flexneri Sf9380): no inflammation; times lower invasion than the control, SL1344 ([1]; 25 µmo/L): 3.84 times; cell invasion rate of Salmonella enterica Typhimurium SL1344 ([1]; 25 µmo/L): 1.564×10^−2; effect on cell invasion of Salmonella SL1344 (words, discussion) [1]: inhibited"
O=C(Nc1ccc(C2(c3cccc(NC(=O)c4cccc5ccccc45)c3)c3ccccc3C(=O)c3ccccc32)cc1)c1ccc2ccccc2c1 [Compound 1],can inhibit,+,+,+,−,+,+,−,−,+,−,−,−,−,−,−,−,−,−,−,"degree of keratoconjunctival inflammation (S. flexneri Sf9380; 96 h, mouse 2): −; degree of keratoconjunctival inflammation (S. flexneri Sf9380; 96 h, mouse 3): −; degree of keratoconjunctival inflammation (S. flexneri Sf9380; 96 h, mouse 4): −; degree of keratoconjunctival inflammation (S. flexneri Sf9380; 96 h, mouse 5): −; degree of keratoconjunctival inflammation (S. flexneri Sf9380; 96 h, mouse 6): −; eye finding at 24 hours after infection (S. flexneri Sf9380; [3]): slight conjunctival inflammation; time by which keratoconjunctivitis was resolved (S. flexneri Sf9380; [3]): ≤ 48 h; keratoconjunctival inflammation (words, abstract) (S. flexneri Sf9380): no inflammation; times lower invasion than the control, SL1344 ([1]; 12.5 µmo/L): 6.74 times; cell invasion rate of Salmonella enterica Typhimurium SL1344 ([1]; 12.5 µmo/L): 0.89×10^−2; effect on cell invasion of Salmonella SL1344 (words, discussion) [1]: inhibited"
